Laboratory results reported in patent US11178871B2, “Herbicidal pyrimidine compounds” (BASF SE, priority 2016, dated 2021).

Experiments:
Format in all cases: in vivo
Apera spica-venti = assay: greenhouse test, pre-emergence treatment, APESV
From the text: (§1) The culture containers used were plastic flowerpots containing loamy sand with approximately 3.0% of humus as the substrate. The seeds of the test plants were sown separately for each species.
(§2) For the pre-emergence treatment, the active ingredients, which had been suspended or emulsified in water, were applied directly after sowing by means of finely distributing nozzles. The containers were irrigated gently to promote germination and growth and subsequently covered with transparent plastic hoods until the plants had rooted. This cover caused uniform germination of the test plants, unless this had been impaired by the active ingredients.
(§3) Depending on the species, the plants were kept at 10-25° C. or 20-35° C., respectively.
(§4) The test period extended over 2 to 4 weeks. During this time, the plants were tended, and their response to the individual treatments was evaluated.
(§5) Evaluation was carried out using a scale from 0 to 100. 100 means no emergence of the plants, or complete destruction of at least the aerial moieties, and 0 means no damage, or normal course of growth. A good herbicidal activity is given at values of at least 70 and a very good herbicidal activity is given at values of at least 85.
(§6) The plants used in the greenhouse experiments were of the following species: […]

Echinocloa crus-galli [1] = assay: greenhouse test, pre-emergence treatment, ECHCG
From the text: as §1, §2, §3, §4, §5, §6

Avena fatua = assay: greenhouse test, post-emergence treatment, AVEFA
From the text: as §1
(§7) For the post-emergence treatment, the test plants were first grown to a height of 3 to 15 cm, depending on the plant habit, and only then treated with the active ingredients which had been suspended or emulsified in water. For this purpose, the test plants were either sown directly and grown in the same containers, or they were first grown separately as seedlings and transplanted into the test containers a few days prior to treatment.
as §3, §4, §5, §6

Alopecurus myosuroides = assay: greenhouse test, post-emergence treatment, ALOMY; details: post-emergence
From the text: as §1, §7, §3, §4, §5, §6

Echinocloa crus-galli [2] = assay: greenhouse test, post-emergence treatment, ECHCG; details: post-emergence
From the text: as §1, §7, §3, §4, §5, §6

SMILES	herbicidal activity (Apera spica-venti; 2000 g/ha)	herbicidal activity (Echinocloa crus-galli [1]; 2000 g/ha)	herbicidal activity (Avena fatua; 2000 g/ha)	herbicidal activity (Alopecurus myosuroides; 2000 g/ha)	herbicidal activity (Echinocloa crus-galli [2]; 2000 g/ha)	herbicidal activity (Apera spica-venti; 1000 g/ha)	herbicidal activity (Echinocloa crus-galli [2]; 1000 g/ha)	herbicidal activity (Avena fatua; 1000 g/ha)	herbicidal activity (Alopecurus myosuroides; 1000 g/ha)	herbicidal activity (Echinocloa crus-galli [1]; 1000 g/ha)
COC(=O)C(C)c1nc(C2CC2)ncc1-c1cc(F)ccc1Cl (centres unmarked) [Ex. 159]	good (A good herbicidal activity is given at values of at least 70)	good (A good herbicidal activity is given at values of at least 70)	very good (a very good herbicidal activity is given at values of at least 85)	very good (a very good herbicidal activity is given at values of at least 85)						
COC(=O)Cc1nc(C2CC2)ncc1-c1ccccc1Br [Ex. 67]	very good (a very good herbicidal activity is given at values of at least 85)		very good (a very good herbicidal activity is given at values of at least 85)	very good (a very good herbicidal activity is given at values of at least 85)	good (A good herbicidal activity is given at values of at least 70)					
COCc1nc(C2CC2)ncc1-c1ccccc1Cl [Ex. 22]						very good (a very good herbicidal activity is given at values of at least 85)	very good (a very good herbicidal activity is given at values of at least 85)	very good (a very good herbicidal activity is given at values of at least 85)	very good (a very good herbicidal activity is given at values of at least 85)	
COC(=O)Cc1nc(C2CC2)ncc1-c1ccccc1Cl [Ex. 32]	very good (a very good herbicidal activity is given at values of at least 85)	very good (a very good herbicidal activity is given at values of at least 85)	very good (a very good herbicidal activity is given at values of at least 85)	very good (a very good herbicidal activity is given at values of at least 85)	very good (a very good herbicidal activity is given at values of at least 85)					
Clc1ccccc1-c1cnc(C2CC2)nc1C=C1CCCC1 [Ex. 128]	very good (a very good herbicidal activity is given at values of at least 85)		very good (a very good herbicidal activity is given at values of at least 85)	good (A good herbicidal activity is given at values of at least 70)	very good (a very good herbicidal activity is given at values of at least 85)					
Clc1ccccc1-c1cnc(C2CC2)nc1C=C1CCC1 [Ex. 71]	very good (a very good herbicidal activity is given at values of at least 85)	very good (a very good herbicidal activity is given at values of at least 85)	very good (a very good herbicidal activity is given at values of at least 85)	very good (a very good herbicidal activity is given at values of at least 85)	good (A good herbicidal activity is given at values of at least 70)					
Cc1ncoc1-c1nc(C2CC2)ncc1-c1cc(C(F)(F)F)ccc1Br [Ex. 263]						very good (a very good herbicidal activity is given at values of at least 85)	very good (a very good herbicidal activity is given at values of at least 85)	very good (a very good herbicidal activity is given at values of at least 85)	very good (a very good herbicidal activity is given at values of at least 85)	very good (a very good herbicidal activity is given at values of at least 85)
Brc1ccccc1-c1cnc(C2CC2)nc1C=C1CCC1 [Ex. 157]	very good (a very good herbicidal activity is given at values of at least 85)	very good (a very good herbicidal activity is given at values of at least 85)	very good (a very good herbicidal activity is given at values of at least 85)	very good (a very good herbicidal activity is given at values of at least 85)	very good (a very good herbicidal activity is given at values of at least 85)					
Cc1cc(-c2nc(C3CC3)ncc2-c2ccccc2Br)c(C)o1 [Ex. 237]	very good (a very good herbicidal activity is given at values of at least 85)	very good (a very good herbicidal activity is given at values of at least 85)	very good (a very good herbicidal activity is given at values of at least 85)	very good (a very good herbicidal activity is given at values of at least 85)	very good (a very good herbicidal activity is given at values of at least 85)					
Fc1ccc(-c2cnc(C3CC3)nc2-c2ccco2)c(Cl)c1 [Ex. 54]						very good (a very good herbicidal activity is given at values of at least 85)	very good (a very good herbicidal activity is given at values of at least 85)	very good (a very good herbicidal activity is given at values of at least 85)		
COc1cnc(O)nc1-c1nc(C2CC2)ncc1-c1ccccc1Cl [Ex. 250]	very good (a very good herbicidal activity is given at values of at least 85)	very good (a very good herbicidal activity is given at values of at least 85)	very good (a very good herbicidal activity is given at values of at least 85)	very good (a very good herbicidal activity is given at values of at least 85)	very good (a very good herbicidal activity is given at values of at least 85)					
OC(Cc1nc(C2CC2)ncc1-c1ccccc1Cl)c1ccco1 (centres unmarked) [Ex. 106]	very good (a very good herbicidal activity is given at values of at least 85)	very good (a very good herbicidal activity is given at values of at least 85)	very good (a very good herbicidal activity is given at values of at least 85)	very good (a very good herbicidal activity is given at values of at least 85)	very good (a very good herbicidal activity is given at values of at least 85)					
Brc1ccccc1-c1cnc(C2CC2)nc1-c1cnco1 [Ex. 261]						very good (a very good herbicidal activity is given at values of at least 85)	very good (a very good herbicidal activity is given at values of at least 85)	very good (a very good herbicidal activity is given at values of at least 85)	very good (a very good herbicidal activity is given at values of at least 85)	very good (a very good herbicidal activity is given at values of at least 85)
Brc1ccccc1-c1cnc(C2CC2)nc1-c1ccoc1 [Ex. 40]	very good (a very good herbicidal activity is given at values of at least 85)	very good (a very good herbicidal activity is given at values of at least 85)	very good (a very good herbicidal activity is given at values of at least 85)	very good (a very good herbicidal activity is given at values of at least 85)						
CCc1nc(C)c(-c2nc(C3CC3)ncc2-c2ccccc2Br)o1 [Ex. 290]	very good (a very good herbicidal activity is given at values of at least 85)	very good (a very good herbicidal activity is given at values of at least 85)	very good (a very good herbicidal activity is given at values of at least 85)	very good (a very good herbicidal activity is given at values of at least 85)	very good (a very good herbicidal activity is given at values of at least 85)					
